Test results from US8759579B2, “Cyclobutyl sulfones as notch sparing gamma secretase inhibitors” (Merck Sharp & Dohme Corp., priority 2008, dated 2014).
Read-outs that look alike come from different tables or passages of the source.

How the values were obtained:
[1] = molecular target: T1, pregnane X receptor (PXR) (Homo sapiens, UniProt O75469); experiment: PXR assay (CYP3A4-SEAP transactivation assay, PCSTA); type: cell-based; conditions: for EC50: HEP G2 cells
T1 construct: expressed in transfected cells; host or cells: HEP G2
T1 sequence (O75469 1-434): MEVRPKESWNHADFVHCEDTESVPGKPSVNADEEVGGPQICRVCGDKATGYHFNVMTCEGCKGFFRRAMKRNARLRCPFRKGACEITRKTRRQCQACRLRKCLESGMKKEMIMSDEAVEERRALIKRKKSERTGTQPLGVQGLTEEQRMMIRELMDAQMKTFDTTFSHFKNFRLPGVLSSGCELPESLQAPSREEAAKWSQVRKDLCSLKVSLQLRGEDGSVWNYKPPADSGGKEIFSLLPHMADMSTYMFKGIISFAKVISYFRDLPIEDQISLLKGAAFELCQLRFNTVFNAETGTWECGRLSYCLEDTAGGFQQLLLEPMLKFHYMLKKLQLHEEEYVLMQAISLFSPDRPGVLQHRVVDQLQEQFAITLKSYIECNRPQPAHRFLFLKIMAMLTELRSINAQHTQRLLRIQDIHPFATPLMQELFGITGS
T1 sequence (P19793 1-462 partner): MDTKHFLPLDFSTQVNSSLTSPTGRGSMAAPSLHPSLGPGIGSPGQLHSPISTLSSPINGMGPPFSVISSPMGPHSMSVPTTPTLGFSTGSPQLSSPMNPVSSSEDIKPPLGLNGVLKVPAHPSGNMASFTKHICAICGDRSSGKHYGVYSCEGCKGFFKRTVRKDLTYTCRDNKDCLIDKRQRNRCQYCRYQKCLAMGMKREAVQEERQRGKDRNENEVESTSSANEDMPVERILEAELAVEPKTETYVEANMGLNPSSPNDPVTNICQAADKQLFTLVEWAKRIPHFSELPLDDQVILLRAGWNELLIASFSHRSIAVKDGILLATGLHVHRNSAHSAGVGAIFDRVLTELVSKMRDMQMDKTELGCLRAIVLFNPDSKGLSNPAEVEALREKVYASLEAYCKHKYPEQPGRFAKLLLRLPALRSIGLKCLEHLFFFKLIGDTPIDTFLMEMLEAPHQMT
From the text: The CYP3A4-SEAP transactivation assay (PCSTA) effectively and rapidly evaluates compounds for their potential to induce cytochrome P450 CYP3A (human CYP3A4 or rat CYP3A1). The reporter construct contains regulatory regions from the CYP3A4 gene positioned just upstream of a secreted alkaline phosphatase (SEAP) gene. The human PXR nuclear receptor has been modified at the 5′-end so that methionine is the initiating amino acid replacing leucine found in the wild-type sequence. HEP G2 cells are transfected with the PXR plasmid (human or rat) and the reporter plasmid. Read-out for the induction of CYP3A4 consists of a SEAP calorimetric assay with para-nitro-phenyl phosphate (pNPP) as the substrate. Five point dose-response curves in duplicate are then generated with each point corresponding to the rate of conversion of pNPP to pNP by SEAP. For the human PCSTA, rifampicin is used as the positive control and 100% induction is based upon the maximum induction produced by rifampicin at 10 μM.

[2] = system: Aβ42 peptides generated from SH-SY5Y cells expressing amyloid β protein (SP4CT cells); experiment: APP processing AlphaLisa assay, secreted Aβ42; type: cell-based; conditions: average of at least >4 replicates, read-out: AB42 IC50 AVG
Description: (§1) APP Processing (Assay Quantitates Secreted Aβ Analytes from Cell Lines):
(§2) The effect of compounds on the abundance of Aβ40 and Aβ42 peptides generated from SH-SY5Y cells expressing amyloid β protein (SP4CT cells) was determined by an AlphaLisa™ assay. Analogous to an ELISA assay, generation of signal in this AlphaLisa™ assay requires “donor” and “acceptor” beads to be brought in close proximity by specific antibody recognition of either Aβ40 or Aβ42 peptides. The assay was accomplished by removing media from compound-treated SP4CT cells to two different microplates, followed by the addition of donor beads conjugated with streptavidin binding a biotinylated anti-amyloid β monoclonal antibody (clone 4G8). Acceptor beads directly conjugated with anti-Aβ40 monoclonal antibody (G210) were added to one microplate and anti-Aβ42 monoclonal antibody (12F4) acceptor beads were added to the other. Abundance of Aβ40 and Aβ42 was directly proportional to the luminescent signal generated following excitation of donor beads by laser light.

[3] = system: Aβ40 peptides generated from SH-SY5Y cells expressing amyloid β protein (SP4CT cells); experiment: APP processing AlphaLisa assay, secreted Aβ40; type: cell-based; conditions: average of at least >4 replicates, read-out: AB40 IC50 AVG
Description: as §1, §2

[4] = system: gamma secretase-dependent cleavage of the Notch protein (NotchΔE) in HeLa cells; experiment: Notch processing split-luciferase assay (Notch intracellular domain release); type: cell-based
From the text: Notch Processing: (Assay Quantitates Notch Intracellular Domain Release in Cell Lines):
A “split-luciferase” assay is used to measure inhibition of gamma secretase-dependent cleavage of the Notch protein. In this assay, HeLa cells were made to express a Notch protein lacking its extracellular domain (NotchΔE) fused to an N-terminal fragment of luciferase. The same cells also expressed a C-terminal fragment of luciferase fused to the immunoglobulin J kappa recombination signal sequence binding protein (RBP). Upon NotchΔE cleavage by gamma secretase, a Notch intracellular domain (NICD)-N terminal luciferase protein is generated which translocates to the nucleus and binds the RBP-C terminal luciferase fusion, bringing two independently nonfunctional halves of luciferase together to form a functional luciferase enzyme. The activity of luciferase in these cells is directly proportional to the amount of gamma secretase-cleaved Notch. Luciferase activity is determined by the standard techniques of luciferin addition to lysed cells and measurement of total luminescence.

[5] = covalent protein binding assay with liver microsomes; type: in vitro ADME; conditions: radiolabeled compound incubated with human liver microsomes
Description: MRK-560 and Example 2 were tested in a covalent protein binding assay which is predictive of drug toxicity. The potential of drug candidates to cause covalent binding to proteins is evaluated by incubation of the radiolabeled version of the compound in question with liver microsomes. A semi-automated method based on Brandel Harvester technique is then used to measure the formation of covalent adducts of the test compound to liver proteins binding (Ref. Day et. al, J Pharmacol Toxicol Methods. 52, 278-85, 2005).

[6] = Homo sapiens, HeLa, average of at least >4 replicates, read-out: Notch IC50 AVG
[7] = read-out: Notch IC50 AVG, average of at least >4 replicates

Row | SMILES | PXR % Activation @ 10 uM [1] | EC50 [1] | IC50 ([2]; Homo sapiens, SH-SY5Y) | IC50 ([3]; Homo sapiens, SH-SY5Y) | IC50 [4, 6] | covalent protein binding (human microsomes) [5] | IC50 [2] | IC50 [3] | IC50 [4, 7]
1 | O=S(=O)(N[C@H]1C[C@@](c2cc(F)ccc2F)(S(=O)(=O)c2ccc(Cl)cc2)C1)C(F)(F)F [Example 2, N-[cis-3-[(4-chlorophenyl)sulfonyl]-3-(2,5-difluorophenyl)cyclobutyl]-1,1,1-trifluoromethanesulfonamide] | 55.5% | 3430 nM | 38.4 nM | 42.8 nM | 3480 nM | 380 pmol/mg | – | – | –
2 | O=S(=O)(N([C@H]1C[C@@](c2cc(F)ccc2F)(S(=O)(=O)c2ccc(Cl)cc2)C1)S(=O)(=O)C(F)(F)F)C(F)(F)F [Example 19, N-[cis-3-[(4-chlorophenyl)sulfonyl]-3-(2,5-difluorophenyl)cyclobutyl]-1,1,1-trifluoro-N-[(trifluoromethyl)sulfonyl]methanesulfonamide] | 89.1% | 1250 nM | 48.7 nM | 62.6 nM | 5680 nM | – | – | – | –
3 | O=S(=O)([N-][C@H]1C[C@@](c2cc(F)ccc2F)(S(=O)(=O)c2ccc(Cl)cc2)C1)C(F)(F)F.[Na+] [Example 20, Sodium [cis-3-[(4-chlorophenyl)sulfonyl]-3-(2,5-difluorophenyl)cyclobutyl][(trifluoromethyl)sulfonyl]azanide] | 71.9% | 2890 nM | – | – | – | – | 53.2 nM | 61.2 nM | 1770 nM
4 | O=S(=O)([N-][C@H]1C[C@@](c2cc(F)ccc2F)(S(=O)(=O)c2ccc(Cl)cc2)C1)C(F)(F)F.[K+] [Example 21, Potassium [cis-3-[(4-chlorophenyl)sulfonyl]-3-(2,5-difluorophenyl)cyclobutyl][(trifluoromethyl)sulfonyl]azanide] | 64.4% | 3380 nM | – | – | – | – | 70.9 nM | 64.9 nM | 2130 nM

Further lines, with some results ahead:

Row | PXR % Activation @ 10 uM [1] | EC50 [1] | IC50 ([2]; Homo sapiens, SH-SY5Y) | IC50 ([3]; Homo sapiens, SH-SY5Y) | IC50 [4, 6] | SMILES | covalent protein binding (human microsomes) [5] | IC50 [2] | IC50 [3] | IC50 [4, 7]
5 | 74.6% | 848 nM | 37 nM | 37.3 nM | 5210 nM | C[C@]1(NS(=O)(=O)C(F)(F)F)C[C@@](c2cc(F)ccc2F)(S(=O)(=O)c2ccc(Cl)cc2)C1 [Example 17, N-[cis-3-[(4-chlorophenyl)sulfonyl]-3-(2,5-difluorophenyl)-1-methylcyclobutyl]-1,1,1-trifluoromethanesulfonamide] | – | – | – | –
6 | 75.5% | 3090 nM | 65.4 nM | 60.8 nM | 4470 nM | CC1(NS(=O)(=O)C(F)(F)F)CC(c2cc(F)ccc2F)(S(=O)(=O)c2ccc(C(F)(F)F)cc2)C1 (stereo not drawn) [Example 18, N-(cis-3-(2,5-difluorophenyl)-1-methyl-3-{[4-(trifluoromethyl)phenyl]sulfonyl}cyclobutyl)-1,1,1-trifluoromethanesulfonamide] | – | – | – | –
7 | 50.6% | 9650 nM | 237 nM | 250 nM | 5200 nM | O=S(=O)(N[C@H]1C[C@@](c2cc(F)ccc2F)(S(=O)(=O)c2ccc(OC(F)(F)F)cc2)C1)C(F)(F)F [Example 22, N-[cis-3-[(4-trifluoromethoxyphenyl)sulfonyl]-3-(2,5-difluorophenyl)cyclobutyl]-1,1,1-trifluoromethanesulfonamide] | – | – | – | –
